Laboratory results from patent publication US9458113B2 (Boehringer Ingelheim International GmbH, priority 2014, dated 2016).

How the values were obtained:
cytochrome P450 2C19 = cytochrome P450 2C19 (Homo sapiens (Human), UniProt P33261); assay: Cytochrome P450 2C19 inhibition; type: in vitro ADME; details: human liver microsomes, (S)-Mephenytoin hydroxylation; read-out: IC50 (CYP 2C19)
Excerpt: Assay for Determination of Cytochrome P450 2C19 Inhibition
(§1) (I=inhibitor concentration, S=slope factor, B=background activity)

[1] = biological target: Human neutrophil elastase (Homo sapiens (Human), UniProt P08246); assay: Human Neutrophil Elastase Assay; type: biochemical; details: substrate MeOSuc-Ala-Ala-Pro-Val-AMC 250 μM, pH 7.5
Sequence of Human neutrophil elastase (P08246 30-247): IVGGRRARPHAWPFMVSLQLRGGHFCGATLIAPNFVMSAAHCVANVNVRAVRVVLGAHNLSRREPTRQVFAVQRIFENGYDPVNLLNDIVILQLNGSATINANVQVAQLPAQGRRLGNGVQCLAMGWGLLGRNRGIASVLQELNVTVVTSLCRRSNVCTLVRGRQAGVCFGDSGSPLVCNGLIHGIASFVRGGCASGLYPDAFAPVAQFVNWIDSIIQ

cytochrome P450 2C9 = cytochrome P450 2C9 (Homo sapiens (Human), UniProt P11712); assay: Cytochrome P450 2C9 inhibition; type: in vitro ADME; details: human liver microsomes, Diclofenac hydroxylation; read-out: IC50 (CYP 2C9)
Sequence of cytochrome P450 2C9 (P11712 whole entry): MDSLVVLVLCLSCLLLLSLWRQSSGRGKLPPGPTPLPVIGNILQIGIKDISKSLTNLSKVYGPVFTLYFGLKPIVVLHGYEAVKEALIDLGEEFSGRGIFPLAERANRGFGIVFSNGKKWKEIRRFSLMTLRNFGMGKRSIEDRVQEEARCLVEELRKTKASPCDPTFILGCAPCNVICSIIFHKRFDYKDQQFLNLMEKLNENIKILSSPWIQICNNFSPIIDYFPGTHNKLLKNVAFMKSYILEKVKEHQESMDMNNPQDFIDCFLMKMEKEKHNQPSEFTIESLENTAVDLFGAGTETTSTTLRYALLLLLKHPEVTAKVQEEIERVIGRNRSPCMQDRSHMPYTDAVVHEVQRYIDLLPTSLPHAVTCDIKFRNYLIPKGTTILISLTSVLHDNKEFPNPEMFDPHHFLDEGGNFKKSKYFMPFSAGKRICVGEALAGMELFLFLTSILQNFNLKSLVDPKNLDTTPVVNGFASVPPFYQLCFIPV
Excerpt: Assay for Determination of Cytochrome P450 2C9 Inhibition
as §1

[2] = biological target: neutrophil elastase in zymosan-stimulated human plasma (Homo sapiens (Human), UniProt P08246); assay: Neutrophil elastase inhibitory activity in human plasma; type: biochemical; details: human plasma from zymosan-stimulated blood
Sequence of neutrophil elastase in zymosan-stimulated human plasma (P08246 30-247): as the sequence (P08246 30-247) above

cytochrome P450 2C8 = cytochrome P450 2C8 (Homo sapiens (Human), UniProt P10632); assay: Cytochrome P450 2C8 inhibition; type: in vitro ADME; details: human liver microsomes, Amodiaquine deethylation; read-out: IC50 (CYP 2C8)
Sequence of cytochrome P450 2C8 (P10632 whole entry): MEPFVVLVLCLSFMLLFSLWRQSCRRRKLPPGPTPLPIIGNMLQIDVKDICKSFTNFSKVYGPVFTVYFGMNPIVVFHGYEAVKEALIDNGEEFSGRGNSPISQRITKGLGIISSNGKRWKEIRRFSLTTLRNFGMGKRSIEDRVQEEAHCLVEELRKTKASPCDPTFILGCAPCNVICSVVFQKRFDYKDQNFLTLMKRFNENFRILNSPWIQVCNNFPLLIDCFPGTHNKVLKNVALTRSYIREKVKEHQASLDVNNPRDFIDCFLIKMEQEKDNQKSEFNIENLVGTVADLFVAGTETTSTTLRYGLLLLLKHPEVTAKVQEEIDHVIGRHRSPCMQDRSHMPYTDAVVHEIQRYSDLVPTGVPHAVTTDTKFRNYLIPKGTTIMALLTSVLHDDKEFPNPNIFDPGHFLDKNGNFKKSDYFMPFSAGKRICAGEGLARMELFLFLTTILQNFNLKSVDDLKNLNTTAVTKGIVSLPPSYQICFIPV
Excerpt: Assay for Determination of Cytochrome P450 2C8 Inhibition
as §1

hERG potassium channel = hERG potassium channel (Homo sapiens (Human), UniProt Q12809); assay: hERG inhibition patch clamp assay; type: cell-based; details: human, @ 10 μM
Sequence of hERG potassium channel (Q12809 whole entry): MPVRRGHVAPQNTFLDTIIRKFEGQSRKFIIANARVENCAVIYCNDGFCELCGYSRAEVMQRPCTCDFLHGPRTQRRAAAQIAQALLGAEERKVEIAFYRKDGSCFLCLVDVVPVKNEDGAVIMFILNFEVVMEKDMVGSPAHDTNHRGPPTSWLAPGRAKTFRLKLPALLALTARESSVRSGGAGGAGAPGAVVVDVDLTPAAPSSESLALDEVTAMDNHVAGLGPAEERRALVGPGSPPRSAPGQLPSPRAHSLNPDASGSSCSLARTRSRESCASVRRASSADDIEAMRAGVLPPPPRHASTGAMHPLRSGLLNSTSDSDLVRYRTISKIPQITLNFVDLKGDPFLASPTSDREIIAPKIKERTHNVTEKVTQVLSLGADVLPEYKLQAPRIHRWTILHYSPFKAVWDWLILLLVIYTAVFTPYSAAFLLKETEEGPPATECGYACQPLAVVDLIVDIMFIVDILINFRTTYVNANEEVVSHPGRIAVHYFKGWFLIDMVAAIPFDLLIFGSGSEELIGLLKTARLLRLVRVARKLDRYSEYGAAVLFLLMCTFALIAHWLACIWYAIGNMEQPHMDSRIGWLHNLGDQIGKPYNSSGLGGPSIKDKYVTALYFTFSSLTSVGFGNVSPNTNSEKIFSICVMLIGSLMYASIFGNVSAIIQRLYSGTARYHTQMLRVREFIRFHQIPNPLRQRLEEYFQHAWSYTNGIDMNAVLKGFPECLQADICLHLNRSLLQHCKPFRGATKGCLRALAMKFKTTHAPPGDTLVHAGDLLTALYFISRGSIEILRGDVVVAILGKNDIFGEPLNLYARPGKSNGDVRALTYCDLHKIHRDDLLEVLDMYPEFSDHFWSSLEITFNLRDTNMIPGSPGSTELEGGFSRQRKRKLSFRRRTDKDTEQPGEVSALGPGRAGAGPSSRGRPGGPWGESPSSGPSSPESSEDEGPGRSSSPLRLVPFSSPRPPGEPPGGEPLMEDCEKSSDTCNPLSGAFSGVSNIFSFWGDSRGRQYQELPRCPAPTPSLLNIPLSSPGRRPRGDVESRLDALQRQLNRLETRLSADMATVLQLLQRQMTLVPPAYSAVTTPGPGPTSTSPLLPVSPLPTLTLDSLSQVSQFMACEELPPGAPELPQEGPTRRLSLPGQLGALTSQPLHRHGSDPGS

[3] = biological target: hERG (human ether-a-go-go-related gene) potassium channel (Homo sapiens (Human), UniProt Q12809); assay: hERG inhibition patch clamp assay; type: cell-based
Sequence of hERG (human ether-a-go-go-related gene) potassium channel (Q12809 whole entry): as above

[4] = Metabolic stability with human liver microsomes; type: in vitro ADME; details: pH 7.6; pooled human liver microsomes, 1 μM test compound, 37° C.; read-out: t1/2 INVITRO

Sequence of cytochrome P450 2C19 (P33261 whole entry): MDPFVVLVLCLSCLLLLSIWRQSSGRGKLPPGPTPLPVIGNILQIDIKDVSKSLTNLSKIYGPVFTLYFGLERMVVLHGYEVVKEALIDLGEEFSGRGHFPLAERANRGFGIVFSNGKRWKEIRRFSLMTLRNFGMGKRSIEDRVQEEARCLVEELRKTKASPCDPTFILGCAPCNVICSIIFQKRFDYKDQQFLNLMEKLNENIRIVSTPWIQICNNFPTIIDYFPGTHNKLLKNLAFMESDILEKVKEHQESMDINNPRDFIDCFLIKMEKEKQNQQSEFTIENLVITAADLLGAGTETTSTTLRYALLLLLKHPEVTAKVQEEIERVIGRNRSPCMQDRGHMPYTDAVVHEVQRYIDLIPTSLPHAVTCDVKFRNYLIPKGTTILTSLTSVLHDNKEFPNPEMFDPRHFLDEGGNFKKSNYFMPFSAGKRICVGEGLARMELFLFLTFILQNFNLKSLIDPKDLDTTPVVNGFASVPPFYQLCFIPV

| IC50 (cytochrome P450 2C19) | IC50 [1] | IC50 (cytochrome P450 2C9) | EC50 [2] | IC50 (cytochrome P450 2C8) | half-life at 1 μM [4] | SMILES | inhibition at 10 µM (hERG potassium channel) | IC50 [3] |
| --- | --- | --- | --- | --- | --- | --- | --- | --- |
| > 50 µM | 0.0019 µM | > 50 µM | 0.007 µM | > 50 µM | > 2.17 h | CN1C(=O)N(c2cccc(C(F)(F)F)c2)C2=C(C(=O)CC2)[C@H]1c1ccc(C#N)cc1CNC(C)(C)C [Example 24, 3-(tert-Butylamino-methyl)-4-[(R)-3-methyl-2,5-dioxo-1-(3-trifluoromethyl-phenyl)-2,3,4,5,6,7-hexahydro-1H-cyclopentapyrimidin-4-yl]-benzonitrile] | 7% | > 30 µM |
| > 50 µM | 0.0024 µM | > 50 µM | 0.001 µM | > 50 µM | > 2.17 h | CN1C(=O)N(c2cccc(C(F)(F)F)c2)C2=C(C(=O)CC2)[C@H]1c1ccc(C#N)cc1C(N)=O [Example 2, 5-Cyano-2-[(R)-3-methyl-2,5-dioxo-1-(3-trifluoromethyl-phenyl)-2,3,4,5,6,7-hexahydro-1H-cyclopentapyrimidin-4-yl]-benzamide] | 4% | > 30 µM |
| > 50 µM | < 0.001 µM | > 50 µM | 0.001 µM | > 50 µM | > 2.17 h | CN1C(=O)N(c2cccc(C(F)(F)F)c2)C2=C(C(=O)CC2)[C@H]1c1ccc(C#N)cc1-c1ccc(=O)n(C)c1 [Example 23, 4-[(R)-3-Methyl-2,5-dioxo-1-(3-trifluoromethyl-phenyl)-2,3,4,5,6,7-hexahydro-1H-cyclopentapyrimidin-4-yl]-3-(1-methyl-6-oxo-1,6-dihydro-pyridin-3-yl)-benzonitrile] | 5% | > 30 µM |
